From US20230021483A1, “[…] […] METHOD AND CLASSIFICATION OF PHARMACEUTICAL COMPONENTS BY USING TRANSCRIPTOMES” (National Institutes of Biomedical Innovation, Health and …, priority 2016, published 2023)

Columns and labels:
[1] = tested on: liver (LV); assay: Whole organ transcriptome (GeneChip microarray) of liver 6 h after adjuvant administration: sDEGs, hierarchical clustering; type: in vivo, C57BL/6 mice; settings: hierarchical clustering, liver; further: key: G1 (interferon signaling); G2 (metabolism of lipids and lipoproteins); G3 (response to stress); G4 (response to wounding); G5 (phosphate-containing compound metabolic process); G6 (phagosome)
[2] = tested on: adjuvant-associated biological themes in LV, SP, LN; settings: LV, ID
In short: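 Enrichment score S sums −log(p) over consensus themes whose names contain a pre-selected adjuvant-associated term such as "stress" or "cytokine". Consensus requires a theme in all three mice of a group, p<0.05. Themes come from TargetMine analysis of genes with eij/ei(c)>2.0, Fisher's exact test, Holm-Bonferroni-corrected.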

Compound: CCOCc1nc2c(N)nc3ccccc3c2n1CC(C)(C)O [R848, 4-amino-2-(ethoxymethyl)-a,a-dimethyl-1H-imidazo[4,5-c]quinoline-1-ethanol]
- adjuvant group (cluster) in LV [1]: G1
- IFN alpha, GO annotation line 1 of 5 [2]: 10.2
- IFN alpha, GO annotation line 2 of 5 [2]: 3.15
- IFN alpha: cellular response to interferon-alpha [2]: 0
- IFN alpha: positive regulation of interferon-alpha production [2]: 0
- IFN alpha: regulation of interferon-alpha production [2]: 0
- IFN beta: cellular response to interferon-beta [2]: 17.9
- IFN beta: interferon-beta production [2]: 7.51
- IFN beta: positive regulation of interferon-beta production [2]: 6.66
- IFN beta: regulation of interferon-beta production [2]: 5.68
- IFN beta: response to interferon-beta [2]: 23.9
- IFN gamma: cellular response to interferon-gamma [2]: 11.2
- IFN gamma: interferon-gamma production [2]: 0
- IFN gamma: regulation of interferon-gamma production [2]: 0
- IFN gamma: response to interferon-gamma [2]: 15.7
- NF-kappa B signaling pathway, GO annotation line 1 of 4 [2]: 8.86
- NF-kappa B signaling pathway, GO annotation line 2 of 4 [2]: 7.93
- NF-kappa B signaling pathway, GO annotation line 3 of 4 [2]: 5.3
- NF-kappa B signaling pathway, GO annotation line 4 of 4 [2]: 5.28
- TNF signaling pathway [2]: 16.1
- adaptive immune response, GO annotation line 1 of 5 [2]: 4.42
- adaptive immune response, GO annotation line 2 of 5 [2]: 6.23
- adaptive immune response, GO annotation line 3 of 5 [2]: 4.06
- adaptive immune response, GO annotation line 4 of 5 [2]: 0
- adaptive immune response, GO annotation line 5 of 5 [2]: 0
- apoptosis, GO annotation line 1 of 8 [2]: 18.6
- apoptosis, GO annotation line 2 of 8 [2]: 15.5
- apoptosis, GO annotation line 3 of 8 [2]: 10.6
- apoptosis, GO annotation line 4 of 8 [2]: 5.18
- apoptosis, GO annotation line 5 of 8 [2]: 4.1
- apoptosis, GO annotation line 6 of 8 [2]: 5.48
- apoptosis, GO annotation line 7 of 8 [2]: 0
- apoptosis, GO annotation line 8 of 8 [2]: 0
- cell death, GO annotation line 1 of 9 [2]: 23.1
- cell death, GO annotation line 2 of 9 [2]: 18.3
- cell death, GO annotation line 3 of 9 [2]: 19.4
- cell death, GO annotation line 4 of 9 [2]: 15.5
- cell death, GO annotation line 5 of 9 [2]: 15.5
- cell death, GO annotation line 6 of 9 [2]: 4.66
- cell death, GO annotation line 7 of 9 [2]: 4.64
- cell death, GO annotation line 8 of 9 [2]: 0
- cell death, GO annotation line 9 of 9 [2]: 0
- chemokine, GO annotation line 1 of 4 [2]: 3.95
- chemokine, GO annotation line 2 of 4 [2]: 0
- chemokine, GO annotation line 3 of 4 [2]: 0
- chemokine, GO annotation line 4 of 4 [2]: 0
- chemotaxis, GO annotation line 1 of 11 [2]: 11
- chemotaxis, GO annotation line 2 of 11 [2]: 0
- chemotaxis, GO annotation line 3 of 11 [2]: 8.03
- chemotaxis, GO annotation line 4 of 11 [2]: 3.91
- chemotaxis, GO annotation line 5 of 11 [2]: 0
- chemotaxis, GO annotation line 6 of 11 [2]: 4.44
- chemotaxis, GO annotation line 7 of 11 [2]: 3.7
- chemotaxis, GO annotation line 8 of 11 [2]: 3.31
- chemotaxis, GO annotation line 9 of 11 [2]: 0
- chemotaxis, GO annotation line 10 of 11 [2]: 3.62
- chemotaxis, GO annotation line 11 of 11 [2]: 0
- cytokine, GO annotation line 1 of 17 [2]: 44.8
- cytokine, GO annotation line 2 of 17 [2]: 30.5
- cytokine, GO annotation line 3 of 17 [2]: 30.4
- cytokine, GO annotation line 4 of 17 [2]: 11.1
- cytokine, GO annotation line 5 of 17 [2]: 30.4
- cytokine, GO annotation line 6 of 17 [2]: 26.5
- cytokine, GO annotation line 7 of 17 [2]: 16.5
- cytokine, GO annotation line 8 of 17 [2]: 5.44
- cytokine, GO annotation line 9 of 17 [2]: 4.8
- cytokine, GO annotation line 10 of 17 [2]: 20.3
- cytokine, GO annotation line 11 of 17 [2]: 5.01
- cytokine, GO annotation line 12 of 17 [2]: 0
- cytokine, GO annotation line 13 of 17 [2]: 5.55
- cytokine, GO annotation line 14 of 17 [2]: 6.84
- cytokine, GO annotation line 15 of 17 [2]: 0
- cytokine, GO annotation line 16 of 17 [2]: 0
- cytokine, GO annotation line 17 of 17 [2]: 0
- defense response, GO annotation line 1 of 11 [2]: 71.2
- defense response, GO annotation line 2 of 11 [2]: 50.3
- defense response, GO annotation line 3 of 11 [2]: 33.9
- defense response, GO annotation line 4 of 11 [2]: 46.5
- defense response, GO annotation line 5 of 11 [2]: 18.6
- defense response, GO annotation line 6 of 11 [2]: 8.29
- defense response, GO annotation line 7 of 11 [2]: 5.54
- defense response, GO annotation line 8 of 11 [2]: 20
- defense response, GO annotation line 9 of 11 [2]: 6.02
- defense response, GO annotation line 10 of 11 [2]: 4.72
- defense response, GO annotation line 11 of 11 [2]: 0
- immune response, GO annotation line 1 of 8 [2]: 54.5
- immune response, GO annotation line 2 of 8 [2]: 27.8
- immune response, GO annotation line 3 of 8 [2]: 34.2
- immune response, GO annotation line 4 of 8 [2]: 14.6
- immune response, GO annotation line 5 of 8 [2]: 12.6
- immune response, GO annotation line 6 of 8 [2]: 15.1
- immune response, GO annotation line 7 of 8 [2]: 0
- immune response, GO annotation line 8 of 8 [2]: 0
- inflammatory response, GO annotation line 1 of 5 [2]: 22.2
- inflammatory response, GO annotation line 2 of 5 [2]: 6.29
- inflammatory response, GO annotation line 3 of 5 [2]: 0
- inflammatory response, GO annotation line 4 of 5 [2]: 0
- inflammatory response, GO annotation line 5 of 5 [2]: 0
- innate immune response, GO annotation line 1 of 6 [2]: 49.6
- innate immune response, GO annotation line 2 of 6 [2]: 37.9
- innate immune response, GO annotation line 3 of 6 [2]: 22.9
- innate immune response, GO annotation line 4 of 6 [2]: 17.9
- innate immune response, GO annotation line 5 of 6 [2]: 13.8
- innate immune response, GO annotation line 6 of 6 [2]: 8.91
- interleukin-6: interleukin-6 production [2]: 7.8
- interleukin-6: positive regulation of interleukin-6 production [2]: 4.53
- interleukin-6: regulation of interleukin-6 production [2]: 6.67
- interleukin-12: interleukin-12 production [2]: 0
- interleukin-12: positive regulation of interleukin-12 production [2]: 0
- interleukin-12: regulation of interleukin-12 production [2]: 0
- migration, GO annotation line 1 of 10 [2]: 8.03
- migration, GO annotation line 2 of 10 [2]: 0
- migration, GO annotation line 3 of 10 [2]: 7.89
- migration, GO annotation line 4 of 10 [2]: 5.8
- migration, GO annotation line 5 of 10 [2]: 3.14
- migration, GO annotation line 6 of 10 [2]: 3.96
- migration, GO annotation line 7 of 10 [2]: 3.31
- migration, GO annotation line 8 of 10 [2]: 0
- migration, GO annotation line 9 of 10 [2]: 0
- migration, GO annotation line 10 of 10 [2]: 0
- stress, GO annotation line 1 of 3 [2]: 63.8
- stress, GO annotation line 2 of 3 [2]: 45.6
- stress, GO annotation line 3 of 3 [2]: 0
- wounding, GO annotation line 1 of 3 [2]: 11.1
- wounding, GO annotation line 2 of 3 [2]: 9.74
- wounding, GO annotation line 3 of 3 [2]: 4.53
